What all share (assay type): functional, organism-based
Assay [1] relates to Empoasca fabae. Nature of the assay: Food deterrence activity against Empoasca fabae (potato leafhopper) assessed as deterring insect settling at 12.5 to 100 ug/cm2 through compound application to surface of sachet containing artificial diet measured at 15 min interval over next 350 min by two-choice bioassay.
Assay [2] relates to Empoasca fabae. Nature of the assay: Food deterrence activity against Empoasca fabae (potato leafhopper) assessed as deterring insect settling at 50 ug/cm2 through compound application to surface of sachet containing artificial diet measured at 15 min interval over next 350 min by two-choice bioassay.
Assay [3] has as its system Empoasca fabae. Nature of the assay: Food deterrence activity against Empoasca fabae (potato leafhopper) assessed as deterring insect settling at 25 ug/cm2 through compound application to surface of sachet containing artificial diet measured at 15 min interval over next 350 min by two-choice bioassay.
Assay [4] relates to Empoasca fabae. Nature of the assay: Food deterrence activity against Empoasca fabae (potato leafhopper) assessed as deterring insect settling at 12.5 ug/cm2 through compound application to surface of sachet containing artificial diet measured at 15 min interval over next 350 min by two-choice bioassay.
The test system of assay [5] is Empoasca fabae. Nature of the assay: Food deterrence activity against Empoasca fabae (potato leafhopper) assessed as deterring insect settling at 100 ug/cm2 through compound application to surface of sachet containing artificial diet measured at 15 min interval over next 350 min by two-choice bioassay.

Calls of active or inactive are those of the source. No cut-off for these calls is given here.

`CCCCC/C=C\C/C=C\CCCCCCCC(=O)NCCC(C)C`: the Activity entry in the assay on Empoasca fabae [1] was “Dose-dependent effect”. For the same compound, the result with Empoasca fabae [2], in the assay with Empoasca fabae [3] and in the assay with Empoasca fabae [5] was Active. In addition, the result in the assay with Empoasca fabae [4] was inactive.

The values above are taken from ChEMBL document CHEMBL3046937, “Mass spectral characterization of fatty acid amides from alfalfa trichomes and their deterrence against the potato leafhopper” (Phytochemistry, 2005).
